Assay results as given in the supplement of paper PMC13380429.

Key:
Settings in all cases: 72 h
[1] = test system: U2OS; assay: cell viability relative to DMSO; higher = less toxic
[2] = test system: Calu-3; assay: as above
[3] = test system: Caco-2; assay: as above
[4] = test system: Vero E6; assay: as above
[5] = test system: HepG2; assay: as above
[6] = test system: U2OS; assay: drug sensitivity score (DSS) for viability; higher = more toxic; extreme values may be limits of the assay
[7] = test system: Calu-3; assay: as above
[8] = test system: Caco-2; assay: as above
[9] = test system: Vero E6; assay: as above
[10] = test system: HepG2; assay: as above
[11] = test system: U2OS; assay: relative viability EC50 (midpoint between 100% and the lowest measured viability); higher = less toxic
[12] = test system: Calu-3; assay: as above
[13] = test system: Caco-2; assay: as above
[14] = test system: Vero E6; assay: as above
[15] = test system: HepG2; assay: as above

| SMILES | cell viability ([1]; 1 nM) [%] | cell viability ([1]; 10 nM) [%] | cell viability ([1]; 100 nM) [%] | cell viability ([1]; 1000 nM) [%] | cell viability ([1]; 10000 nM) [%] | cell viability ([2]; 1 nM) [%] | cell viability ([2]; 10 nM) [%] | cell viability ([2]; 100 nM) [%] | cell viability ([2]; 1000 nM) [%] | cell viability ([2]; 10000 nM) [%] | cell viability ([3]; 1 nM) [%] | cell viability ([3]; 10 nM) [%] | cell viability ([3]; 100 nM) [%] | cell viability ([3]; 1000 nM) [%] | cell viability ([3]; 10000 nM) [%] | cell viability ([4]; 1 nM) [%] | cell viability ([4]; 10 nM) [%] | cell viability ([4]; 100 nM) [%] | cell viability ([4]; 1000 nM) [%] | cell viability ([4]; 10000 nM) [%] | cell viability ([5]; 1 nM) [%] | cell viability ([5]; 10 nM) [%] | cell viability ([5]; 100 nM) [%] | cell viability ([5]; 1000 nM) [%] | cell viability ([5]; 10000 nM) [%] | drug sensitivity score [6] | drug sensitivity score [7] | drug sensitivity score [8] | drug sensitivity score [9] | drug sensitivity score [10] | relative viability EC50 [11] [µM] | relative viability EC50 [12] [µM] | relative viability EC50 [13] [µM] | relative viability EC50 [14] [µM] | relative viability EC50 [15] [µM] |
| --- | --- | --- | --- | --- | --- | --- | --- | --- | --- | --- | --- | --- | --- | --- | --- | --- | --- | --- | --- | --- | --- | --- | --- | --- | --- | --- | --- | --- | --- | --- | --- | --- | --- | --- | --- |
| NC(=O)CNCCC(c1ccccc1)c1ccccc1 [N20C] | 106 | 99.4 | 100 | 99.2 | 102 | 109 | 97.5 | 96.6 | 99.4 | 106 | 107 | 98.4 | 89.4 | 97.2 | 103 | 96.9 | 106 | 98.2 | 98.1 | 97.6 | 97.3 | 93.6 | 106 | 111 | 94.9 | 0 | 0 | 0 | 0 | 0 | > 10 | > 10 | > 10 | > 10 | > 10 |
| CC(=O)N[C@@H](Cc1ccc(O)cc1)C(=O)O [N-acetyl-tyrosine] | 95.3 | 101 | 96.6 | 101 | 107 | 105 | 107 | 108 | 106 | 94.6 | 92.7 | 92.8 | 91 | 95.6 | 102 | 98.6 | 93.4 | 94.3 | 95 | 101 | 93.9 | 88.5 | 93.8 | 97.7 | 98.2 | 0 | 0 | 0 | 0 | 0 | > 10 | > 10 | > 10 | > 10 | > 10 |
| CN1CCN(c2ccc3ccccc3n2)CC1 [N-methylquipazine] | 101 | 99.4 | 102 | 96.8 | 98.9 | 106 | 96.2 | 99.2 | 96.4 | 95.1 | 102 | 91.4 | 104 | 97.3 | 102 | 97.7 | 97.8 | 95.7 | 97.1 | 111 | 99.4 | 96.1 | 98 | 102 | 111 | 0 | 0 | 0 | 0 | 0 | > 10 | > 10 | > 10 | > 10 | > 10 |
| CC(C)NCCN(C(C)C)S(=O)(=O)c1ccc(Cl)cc1Cl [RN-1734] | 99.3 | 98.4 | 101 | 95.4 | 94.7 | 97.1 | 101 | 95.6 | 99.8 | 99.6 | 105 | 95.1 | 97.1 | 94.6 | 97.4 | 97 | 100 | 94.2 | 96.7 | 91.2 | 99.8 | 89.7 | 102 | 96.8 | 85.9 | 0 | 0 | 0 | 0 | 0.4 | > 10 | > 10 | > 10 | > 10 | > 10 |
| Cc1ccc(O)c(N=Nc2ccccc2)n1 [SIB-1757] | 104 | 107 | 102 | 103 | 95.9 | 99.8 | 107 | 111 | 99.9 | 92.8 | 92.4 | 103 | 98.6 | 103 | 86.2 | 98.1 | 94.6 | 96.7 | 99 | 92.5 | 108 | 110 | 107 | 108 | 94.5 | 0 | 0 | 0.1 | 0 | 0 | > 10 | > 10 | > 10 | > 10 | > 10 |
| C=CCN1C[C@H](C)N([C@H](c2ccc(C(=O)N(CC)CC)cc2)c2cccc(OC)c2)C[C@H]1C [SNC-80] | 98.4 | 103 | 93.4 | 99.4 | 94.7 | 93.4 | 98.8 | 101 | 91.2 | 104 | 92.1 | 99.2 | 101 | 95.5 | 93.7 | 106 | 97.7 | 105 | 102 | 101 | 99.9 | 84.6 | 100 | 106 | 97.4 | 0 | 0 | 0 | 0 | 0 | > 10 | > 10 | > 10 | > 10 | > 10 |
| CC[C@H](/C=C/[C@@H](C)[C@H]1CC[C@H]2[C@@H]3CC=C4C[C@@H](O)CC[C@]4(C)[C@H]3CC[C@]12C)C(C)C [Stigmasterol (Stigmasterin)] | 105 | 96.4 | 100 | 99.3 | 99.4 | 95 | 103 | 110 | 102 | 104 | 102 | 107 | 94.6 | 93.5 | 96.9 | 99 | 104 | 99.4 | 106 | 102 | 103 | 109 | 92.9 | 92.8 | 105 | 0 | 0 | 0 | 0 | 0 | > 10 | > 10 | > 10 | > 10 | > 10 |
